According to US10858335B2 (Rigel Pharmaceuticals, Inc., priority 2014, dated 2020):
Structures can show the parent of a compound that is named as a salt.

What follows are compounds tested on GDF8 signaling (p-SMAD-3 (Ser423/425)) (assay: AlphaScreen SureFire SMAD3 (p-Ser423/425) assay, GDF8-stimulated cells (GDF pSMAD)). Conditions: Mus musculus, MPC-11, GDF8-stimulated pSMAD3, MPC11; tested as the salt form given; read-out: GDF pSMAD (MPC11) (μM), inhibition of GDF8 signaling.
Assay type: cell-based

| IC50 | SMILES |
| --- | --- |
| 9.34 µM | Cc1cc2ncnc(N)c2cc1-c1cccnc1-c1cc(Cl)ccc1F [compound 981, 6-(2-(5-chloro-2-fluorophenyl)pyridin-3-yl)-7-methylquinazolin-4-amine] |
| 0.223 µM | CCc1cccc(-c2ncccc2-c2ccc3ncnc(N)c3c2)c1 [compound 1007, 6-(2-(3-ethylphenyl)pyridin-3-yl)quinazolin-4-amine] |

The remaining lines, values behind:

| SMILES | IC50 |
| --- | --- |
| Nc1ncnc2ccc(-c3cccnc3-c3cc(Cl)cc(F)c3F)cc12 [compound 1035, 6-(2-(5-chloro-2,3-difluorophenyl)pyridin-3-yl)quinazolin-4-amine] | 0.161 µM |
| Nc1ncnc2ccc(-c3cccnc3-c3cccc(O)c3)cc12 [compound 977, 3-(3-(4-aminoquinazolin-6-yl)pyridin-2-yl)phenol] | 1 µM |
| CN(C)C(=O)Oc1cccc(-c2ncccc2-c2ccc3ncnc(N)c3c2)c1 [compound 979, 3-(3-(4-aminoquinazolin-6-yl)pyridin-2-yl)phenyl dimethylcarbamate] | 14 µM |
| COc1cnc(-c2cccc(O)c2)c(-c2ccc3ncnc(N)c3c2)c1 [compound 994, 3-(3-(4-aminoquinazolin-6-yl)-5-methoxypyridin-2-yl)phenol] | 3.21 µM |

Same assay, conditions: Mus musculus, MPC-11, MPC11; GDF8-stimulated; p-SMAD3 AlphaScreen; read-out: GDF pSMAD (MPC11) (inhibition of GDF8 signaling)

| IC50 | SMILES |
| --- | --- |
| 0.673 µM | Cc1cc(-c2ncccc2-c2ccc3ncnc(Nc4ccc(N5CCOCC5)cc4)c3c2)ccc1F [compound 408, 6-(2-(4-Fluoro-3-methylphenyl)pyridin-3-yl)-N-(4-morpholinophenyl)quinazolin-4-amine] |
| 2.26 µM | Nc1nccc2ccc(-c3cccnc3-c3ccc(F)c(Cl)c3)cc12 [compound 297, 7-(2-(3-Chloro-4-fluorophenyl)pyridin-3-yl)isoquinolin-1-amine] |
| 7.58 µM | Cc1ccc(F)cc1-c1ncccc1-c1ccc2ncnc(N)c2c1 [compound 466, 6-(2-(5-Fluoro-2-methylphenyl)pyridin-3-yl)quinazolin-4-amine] |
| 1.65 µM | CCOc1cnc(-c2ccc(F)c(C)c2)c(-c2ccc3[nH]ncc3c2)c1 [Compound 1, 5-(5-Ethoxy-2-(4-fluoro-3-methylphenyl)pyridin-3-yl)-1H-indazole] |
| 0.803 µM | Cc1cc(-c2ncc(NCc3cnc4[nH]ccc4c3)cc2-c2ccc3ncsc3c2)ccc1F [compound 329, N-((1H-Pyrrolo[2,3-b]pyridin-5-yl)methyl)-5-(benzo[d]thiazol-6-yl)-6-(4-fluoro-3-methylphenyl)pyridin-3-amine] |
| 0.714 µM | CCOC(=O)c1cnn2ccc(-c3cccnc3-c3ccc(F)c(Cl)c3)nc12 [compound 898, Ethyl 5-(2-(3-chloro-4-fluorophenyl)pyridin-3-yl)pyrazolo[1,5-a]pyrimidine-3-carboxylate] |
| 0.132 µM | Cc1cc(-c2ncccc2-c2ccc3c(cnn3C(=O)OC[C@H](N)Cc3c[nH]c4ccccc34)c2)ccc1F [compound 629, (R)-2-Amino-3-(1H-indol-3-yl)propyl 5-(2-(4-fluoro-3-methylphenyl)pyridin-3-yl)-1H-indazole-1-carboxylate TFA salt] |
| 0.674 µM | OCc1cnc2ccc(-c3cccnc3-c3cccc(C(F)(F)F)c3)cn12 [compound 568, (6-(2-(3-(Trifluoromethyl)phenyl)pyridin-3-yl)imidazo[1,2-a]pyridin-3-yl)methanol] |
| 0.266 µM | CN1CCC(NC(=O)c2cnc3ccc(-c4cccnc4-c4cccc(Cl)c4)cn23)CC1 [compound 708, 6-(2-(3-Chlorophenyl)pyridin-3-yl)-N-(1-methylpiperidin-4-yl)imidazo[1,2-a]pyridine-3-carboxamide] |
| 0.276 µM | COc1ncnc2ccc(-c3cccnc3-c3cccc(C)c3)cc12 [compound 376, 4-Methoxy-6-(2-(m-tolyl)pyridin-3-yl)quinazoline] |
| 5.41 µM | Cc1cc(-c2ncccc2-c2ccc3ncc(CN4CCOCC4)n3c2)ccc1F [compound 569, 4-((6-(2-(4-Fluoro-3-methylphenyl)pyridin-3-yl)imidazo[1,2-a]pyridin-3-yl)methyl)morpholine] |
| 0.228 µM | Cn1cnc2ccc(-c3cccnc3-c3cccc(Cl)c3)cc2c1=O [compound 391, 6-(2-(3-Chlorophenyl)pyridin-3-yl)-3-methylquinazolin-4(3H)-one] |
| 0.11 µM | Cn1cnc2ccc(-c3cccnc3-c3cc(Cl)ccc3F)cc21 [compound 785, 6-(2-(5-Chloro-2-fluorophenyl)pyridin-3-yl)-1-methyl-1H-benzo[d]imidazole] |
| 0.953 µM | Cc1cc(-c2ncccc2-c2ccn3ncc(C(=O)NCCC45CCCN4CCC5)c3c2)ccc1F [compound 805, 5-(2-(4-Fluoro-3-methylphenyl)pyridin-3-yl)-N-(2-(tetrahydro-1H-pyrrolizin-7a(5H)-yl)ethyl)pyrazolo[1,5-a]pyridine-3-carboxamide] |
| 1.71 µM | N#Cc1cc(-c2ncccc2-c2ccc3ncc(C#N)n3c2)ccc1F [compound 628, 6-(2-(3-Cyano-4-fluorophenyl)pyridin-3-yl)imidazo[1,2-a]pyridine-3-carbonitrile] |
| 18.4 µM | FC(F)(F)c1cccc(-c2ncccc2-c2ccc3ncc(N4CCCC4)n3c2)c1 [compound 564, 3-(Pyrrolidin-1-yl)-6-(2-(3-(trifluoromethyl)phenyl)pyridin-3-yl)imidazo[1,2-a]pyridine] |

The remaining lines, values behind:

| SMILES | IC50 |
| --- | --- |
| Cc1cc(-c2ncccc2-c2ccc3ncc(C(=O)NC4CC5CCC(C4)N5C)n3c2)ccc1F (racemic) [compound 711, rac-6-(2-(4-Fluoro-3-methylphenyl)pyridin-3-yl)-N-(8-methyl-8-azabicyclo[3.2.1]octan-3-yl)imidazo[1,2-a]pyridine-3-carboxamide] | 9.28 µM |
| CC(C)Oc1cccc(-c2ncccc2-c2ccc3ncnc(N)c3c2)c1 [compound 480, 6-(2-(3-isopropoxyphenyl)pyridin-3-yl)quinazolin-4-amine] | 1.21 µM |
| CN(C)c1cnc2ccc(-c3cccnc3-c3cccc(C4CC4)c3)cn12 [compound 553, 6-(2-(3-Cyclopropylphenyl)pyridin-3-yl)-N,N-dimethylimidazo[1,2-a]pyridin-3-amine] | 3.24 µM |
| Nc1ncnc2ccc(-c3cccnc3-c3cc(O)cc(Cl)c3)cc12 [compound 493, 3-(3-(4-Aminoquinazolin-6-yl)pyridin-2-yl)-5-chlorophenol] | 0.938 µM |
| Cc1ccc(F)c(-c2ncccc2-c2ccc3[nH]ncc3c2)c1 [Compound 73, 5-(2-(2-Fluoro-5-methylphenyl)pyridin-3-yl)-1H-indazole] | 0.497 µM |
| Cc1cccc(-c2ncccc2-c2ccc3ccncc3c2)c1 [Compound 210, 7-(2-m-Tolylpyridin-3-yl)isoquinoline] | 12.7 µM |
| c1cc(-c2ncccc2-c2cnc3[nH]ncc3c2)cc(C2CC2)c1 [Compound 152, 5-(2-(3-Cyclopropylphenyl)pyridin-3-yl)-1H-pyrazolo[3,4-b]pyridine] | 0.0487 µM |
| Cc1cc(-c2ncccc2-c2ccn3ncc(C(=O)NCCCN)c3c2)ccc1F [compound 684, N-(3-Aminopropyl)-5-(2-(4-fluoro-3-methylphenyl)pyridin-3-yl)pyrazolo[1,5-a]pyridine-3-carboxamide] | 0.593 µM |
| Cc1cc(-c2ncccc2-c2ccn3c(C(=O)NCCCN(C)C)ncc3c2)ccc1F [compound 267, N-(3-(Dimethylamino)propyl)-7-(2-(4-fluoro-3-methylphenyl)pyridin-3-yl)imidazo[1,5-a]pyridine-3-carboxamide] | 6.76 µM |
